Data published in article PMC8875629, “Novel Antioxidant Peptides from Crassostrea Hongkongensis Improve Photo-Oxidation in UV-Induced HaCaT Cells” (Marine Drugs, 2022).

What was measured:
HaCaT cells = experiment: Cytotoxicity in HaCaT cells, CCK-8; conditions: serum-free medium
Protocol: Cells were cultured in Dulbecco’s modified Eagle’s medium (DMEM; Gibco, Thermo Fisher Scientific, Waltham, MA, USA) supplemented with 10% heat-inactivated fetal bovine serum (FBS; Gibco) and 1% antibiotics [100 U/mL penicillin and 100 µg/mL streptomycin (Invitrogen, Thermo Fisher Scientific, Waltham, MA, USA)] at 37 °C in a humidified 5% CO2 incubator (SANYO, Ōsaka, JPN). HaCaT cells were subcultured when they reached 80% to 90% confluence. Cells were cultured for 12 h in 10% heat-inactivated FBS before being used for experiments. When required, HaCaT cells were treated with OPs in a serum-free medium and incubated under the same conditions (Figure 15B).
Cell viability was evaluated by measuring the dehydrogenase-catalyzed formation of a yellow dye in living cells. In the presence of electronic coupling reagents, WST-8 (tetrazolium salt 2-(2-methoxy-4-nitrophenyl)-3-(4-nitrophenyl)-5-(2,4-disulfophenyl) -2H-tetrazolium, monosodium salt (CCK-8)) is reduced to formazan, a yellow dye, by dehydrogenase.
Cells were seeded on 96-well plates at a density of 1 × 10^4 cells/well; viability was measured 24 h after UV-irradiation. […] Absorbance was measured using a microplate reader (Varioskan Flash; Thermo, Waltham, MA, USA) at λ = 450 nm. […] Cytotoxicity and optimal concentrations of OPs were determined using similar steps.

MMP-1 = MMP-1 expression in UV-irradiated HaCaT cells, ELISA; assay type: cell-based, human
Protocol: PINP and MMP-1 levels were measured in cell culture media using enzyme-linked immunoassay (ELISA) kits (Yutong Biological Technology Co., Changzhou, China). All experiments were conducted according to the manufacturer’s instructions. Purified Human MMP-1 antibody is coated in microtiter plate wells, making solid-phase antibodies. Then add the sample to the wells, a Combined antibody which With HRP labeled, become antibody-antigen-enzyme-antibody complex, after washing Completely, Add TMB substrate solution, TMB substrate becomes blue color At HRP enzyme-catalyzed, the reaction is terminated by the addition of a sulphuric acid solution and the color change is measured spectrophotometrically at a wavelength of 450 nm. The concentration of MMP-1 in the samples is then determined by comparing the O.D. of the samples to the standard curve. The content of PINP was determined on the same principles.

[1] = tested on: UV-irradiated HaCaT cells; experiment: Cell viability of UV-irradiated HaCaT cells after pretreatment, CCK-8; assay type: cell-based, human; conditions: pretreatment one day, UV-irradiation
Protocol: For UV-irradiation (Combined UVA and UVB irradiation), HaCaT cells were cultured in 6-well plates (3 × 10^5 cells/well), 12-well plates (1 × 10^5 cells/well), and 96-well plates (1 × 10^4 cells/well) for one day. When cells sufficiently adhered, the medium was removed and cells were washed twice with PBS. Each well contained a thin layer of PBS to keep cell surfaces from drying. The lids of culture plates were opened, and the plates were placed under a UV lamp emitting both UVA (365 nm) and UVB (310 nm) light for 8 min. Irradiation dose was calculated as: Dose (mJ/cm^2) = Exposure time (s) × Intensity (mW/cm^2). After irradiation, cells were washed with warm PBS and incubated with serum-free DMEM for one day or longer.

Row | Substance | Concentration without cytotoxicity (HaCaT cells) [ng/mL] | Abnormal upregulation of MMP-1 (synthetic peptides) (MMP-1) | Effect on survival of UV-irradiated HaCaT cells [1]
1 | GVAMNPVDHPHGGGEGR [Peptide V] | 0 to 200000 |  | 
2 | AIVAEVNEAAK [Peptide I, synthesized peptide identified in OP5-3] |  | most prominent effect | 
3 | TALAIDAIINQK [Peptide III, synthesized peptide identified in OP5-3] |  |  | beneficial effects
4 | LICIVPK [Peptide VI] | 0 to 600000 |  | beneficial effects
